The results in this text go back to patent publication US11339130B1 (Blade Therapeutics, Inc., priority 2016, dated 2022).

One test addresses T1, Human Calpain 1/NS1 (Homo sapiens, UniProt P07384).
T1 sequence (P07384 1-714): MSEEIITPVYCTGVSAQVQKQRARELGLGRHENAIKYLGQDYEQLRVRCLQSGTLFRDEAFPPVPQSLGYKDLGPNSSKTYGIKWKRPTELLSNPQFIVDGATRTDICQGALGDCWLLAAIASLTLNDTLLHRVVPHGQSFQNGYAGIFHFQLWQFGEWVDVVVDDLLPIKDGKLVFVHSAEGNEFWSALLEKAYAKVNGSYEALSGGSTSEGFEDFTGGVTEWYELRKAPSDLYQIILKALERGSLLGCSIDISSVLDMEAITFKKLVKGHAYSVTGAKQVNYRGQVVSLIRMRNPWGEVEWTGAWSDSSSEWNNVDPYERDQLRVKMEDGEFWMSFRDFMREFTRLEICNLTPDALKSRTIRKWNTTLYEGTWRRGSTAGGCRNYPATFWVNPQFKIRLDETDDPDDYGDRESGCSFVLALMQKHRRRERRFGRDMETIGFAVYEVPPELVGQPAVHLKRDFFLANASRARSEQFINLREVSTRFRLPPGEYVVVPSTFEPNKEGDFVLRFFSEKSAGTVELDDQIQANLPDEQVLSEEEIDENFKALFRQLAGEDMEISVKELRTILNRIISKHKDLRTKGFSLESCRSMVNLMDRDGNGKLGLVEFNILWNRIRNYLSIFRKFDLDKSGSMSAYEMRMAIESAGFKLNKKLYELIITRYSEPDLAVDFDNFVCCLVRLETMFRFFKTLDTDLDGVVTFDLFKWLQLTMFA
T1 sequence (P04632 1-268 partner): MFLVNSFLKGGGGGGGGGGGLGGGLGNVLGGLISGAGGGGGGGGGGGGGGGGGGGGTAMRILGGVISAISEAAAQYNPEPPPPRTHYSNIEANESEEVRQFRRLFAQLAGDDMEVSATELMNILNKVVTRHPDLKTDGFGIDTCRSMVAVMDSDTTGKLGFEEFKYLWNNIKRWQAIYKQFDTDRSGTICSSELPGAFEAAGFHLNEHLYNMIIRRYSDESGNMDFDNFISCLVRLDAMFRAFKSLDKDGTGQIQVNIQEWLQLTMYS
Briefly: Calpain inhibition continuous fluorescence (FRET) assay, Human Calpain 1/NS1. In kind it is biochemical. To be noted: read-out: Human Calpain 1/NS1 IC50. A digest of the protocol:
(§1)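 Calpain activity is measured kinetically with a quenched FRET peptide in 50 mM Tris pH 7.5, 100 mM NaCl, 1 mM DTT, with CaCl2 triggering activation. Rates over 1-5 min are plotted against log inhibitor to obtain IC50 by 4-parameter logistic fitting.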

In the next test the target is T2, Human Calpain 9/NS1 (Homo sapiens, UniProt O14815).
T2 sequence (O14815 1-690): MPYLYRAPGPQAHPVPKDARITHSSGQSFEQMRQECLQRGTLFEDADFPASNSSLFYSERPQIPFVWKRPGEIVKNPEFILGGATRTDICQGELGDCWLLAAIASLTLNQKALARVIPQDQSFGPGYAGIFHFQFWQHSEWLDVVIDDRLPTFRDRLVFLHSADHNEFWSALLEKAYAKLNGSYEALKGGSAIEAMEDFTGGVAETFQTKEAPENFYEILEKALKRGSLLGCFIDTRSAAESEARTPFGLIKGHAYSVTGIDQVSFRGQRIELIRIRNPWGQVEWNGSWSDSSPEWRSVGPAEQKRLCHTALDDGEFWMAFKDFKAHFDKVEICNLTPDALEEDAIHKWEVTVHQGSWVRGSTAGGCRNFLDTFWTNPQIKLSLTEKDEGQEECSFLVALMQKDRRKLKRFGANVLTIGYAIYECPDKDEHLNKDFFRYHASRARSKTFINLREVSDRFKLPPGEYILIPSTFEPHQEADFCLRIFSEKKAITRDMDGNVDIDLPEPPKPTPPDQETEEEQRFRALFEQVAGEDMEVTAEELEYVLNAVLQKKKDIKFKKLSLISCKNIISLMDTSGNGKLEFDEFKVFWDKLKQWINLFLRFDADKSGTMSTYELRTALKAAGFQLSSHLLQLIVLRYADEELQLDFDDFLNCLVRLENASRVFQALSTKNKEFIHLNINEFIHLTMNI
T2 sequence (P04632 1-268 partner): T1 sequence (P04632 1-268 partner)
Briefly: Calpain inhibition continuous fluorescence (FRET) assay, Human Calpain 9/NS1. To be noted: read-out: Human Calpain 9/NS1 IC50. In kind it is biochemical. A digest of the protocol: as §1

The test system of test [1] is Calpain activity in SH-SY5Y cells (SBDP-150). In words: SH-SY5Y Spectrin western blot assay (SBDP-150 breakdown product, A23187-induced). The test is classed as cell-based. To be noted: Homo sapiens, SH-SY5Y cells, read-out: SH-SY5Y Spectrin IC50. (A western blot detects proteins with antibodies after separation by electrophoresis.)
Another test concerns the target T3, Human Calpain 2/NS1 (Homo sapiens, UniProt P17655).
T3 sequence (P17655 1-700): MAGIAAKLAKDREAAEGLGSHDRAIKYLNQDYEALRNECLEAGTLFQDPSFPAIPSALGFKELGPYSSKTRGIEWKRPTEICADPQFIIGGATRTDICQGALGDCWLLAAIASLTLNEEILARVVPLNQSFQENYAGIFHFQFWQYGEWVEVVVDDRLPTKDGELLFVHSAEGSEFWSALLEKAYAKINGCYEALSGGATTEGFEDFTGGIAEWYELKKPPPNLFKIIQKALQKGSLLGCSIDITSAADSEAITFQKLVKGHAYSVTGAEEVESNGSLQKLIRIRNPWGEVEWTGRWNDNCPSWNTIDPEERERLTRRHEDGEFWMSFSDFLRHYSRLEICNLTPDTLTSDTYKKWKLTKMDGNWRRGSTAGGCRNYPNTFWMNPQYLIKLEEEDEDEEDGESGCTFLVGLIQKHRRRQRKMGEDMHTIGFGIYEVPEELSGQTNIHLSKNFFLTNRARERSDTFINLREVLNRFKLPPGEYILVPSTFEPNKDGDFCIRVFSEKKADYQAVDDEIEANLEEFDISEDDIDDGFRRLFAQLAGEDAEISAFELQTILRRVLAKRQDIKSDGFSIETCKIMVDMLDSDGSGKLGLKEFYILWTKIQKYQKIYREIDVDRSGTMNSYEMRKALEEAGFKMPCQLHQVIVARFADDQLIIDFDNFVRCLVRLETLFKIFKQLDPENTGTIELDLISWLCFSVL
T3 sequence (P04632 1-268 partner): T1 sequence (P04632 1-268 partner)
In words: Calpain inhibition continuous fluorescence (FRET) assay, Human Calpain 2/NS1. In kind it is biochemical. To be noted: read-out: Human Calpain 2/NS1 IC50. In a few lines:
as §1

Test [2] has as its system Calpain activity in SH-SY5Y cells. Briefly: SH-SY5Y + AMC fluorescence assay (Suc-LLVY-AMC substrate). In kind it is cell-based. To be noted: read-out: SH-SY5Y + AMC IC50.
Where [3] appears, read: Column D, A23187-induced SBDP-150.
Where [4] appears, read: A23187-induced SBDP-150, western blot.

Read-outs that look alike come from different tables or passages of the source.

`Cn1ncc(C(=O)N[C@@H](Cc2ccccc2)C(=O)C(N)=O)c1-c1ccncn1` [Compound 175, (S)—N-(4-amino-3,4-dioxo-1-phenylbutan-2-yl)-1-methyl-5-(pyrimidin-4-yl)-1H-pyrazole-4-carboxamide]: the IC50 on Human Calpain 1/NS1 (Column A) is < 3 µM; at Human Calpain 9/NS1 (Column C) it was < 3 µM; in test [1] (setting [3]), > 25 µM; at Human Calpain 2/NS1 (Column B) it was < 3 µM; in test [2] (Column E), < 10 µM.

Consider `Cc1cc(C(=O)N[C@@H](Cc2ccccc2)C(=O)C(N)=O)n(-c2ncc(-c3ccccc3)o2)n1` [Compound 212, (S)—N-(4-amino-3,4-dioxo-1-phenylbutan-2-yl)-3-methyl-1-(5-phenyloxazol-2-yl)-1H-pyrazole-5-carboxamide], for which the IC50 at Human Calpain 1/NS1 (Column A) is < 3 µM; at Human Calpain 9/NS1 (Column C), < 3 µM; in test [1] (setting [3]), 10 to 25 µM; at Human Calpain 2/NS1 (Column B) it was < 3 µM; in test [2] (Column E), < 10 µM.

Consider `NC(=O)C(=O)C(Cc1ccccc1)NC(=O)c1cn(C(F)F)nc1-c1cccc2cnccc12` (stereo not drawn) [Compound 598, N-(4-amino-3,4-dioxo-1-phenylbutan-2-yl)-1-(difluoromethyl)-3-(isoquinolin-5-yl)-1H-pyrazole-4-carboxamide], for which the IC50 is < 3 µM on Human Calpain 1/NS1; < 3 µM at Human Calpain 9/NS1; < 10 µM in test [1] (setting [4]); < 3 µM at Human Calpain 2/NS1; < 10 µM in test [2].

As for `Cc1c(F)cccc1-c1oncc1C(=O)NC(Cc1ccccc1)C(=O)C(N)=O` (stereo not drawn) [Compound 594, N-(4-amino-3,4-dioxo-1-phenylbutan-2-yl)-5-(3-fluoro-2-methylphenyl)isoxazole-4-carboxamide], the IC50 on Human Calpain 1/NS1 was < 3 µM; at Human Calpain 9/NS1, < 3 µM; in test [1] (setting [4]), 10 to 25 µM; at Human Calpain 2/NS1 it was < 3 µM; in test [2] it was < 10 µM.

`NC(=O)C(=O)C(Cc1ccccc1)NC(=O)c1nsnc1-c1ccc(CNC(=O)c2ccc(F)cc2)cc1` (stereo not drawn) [Compound 363, N-(4-amino-3,4-dioxo-1-phenylbutan-2-yl)-4-(4-((4-fluorobenzamido)methyl)phenyl)-1,2,5-thiadiazole-3-carboxamide]: the IC50 at Human Calpain 1/NS1 was < 3 µM; at Human Calpain 9/NS1, < 3 µM; in test [1] (setting [4]), < 10 µM; at Human Calpain 2/NS1 it was < 3 µM; in test [2], > 25 µM.

Regarding `NC(=O)C(=O)[C@H](Cc1ccccc1)NC(=O)c1cncn1-c1ccccn1` [Compound 24, (S)—N-(4-amino-3,4-dioxo-1-phenylbutan-2-yl)-1-(pyridin-2-yl)-1H-imidazole-5-carboxamide], the IC50 on Human Calpain 1/NS1 (Column A) was < 3 µM; at Human Calpain 9/NS1 (Column C), < 3 µM; in test [1] (setting [3]), > 25 µM; at Human Calpain 2/NS1 (Column B) it was < 3 µM; in test [2] (Column E), > 25 µM.

Take `Cc1cccc(-c2oncc2C(=O)NC(Cc2ccccc2)C(=O)C(N)=O)c1` (stereo not drawn) [Compound 560, N-(4-amino-3,4-dioxo-1-phenylbutan-2-yl)-5-(m-tolyl)isoxazole-4-carboxamide]: the IC50 at Human Calpain 1/NS1 is < 3 µM; at Human Calpain 9/NS1, < 3 µM; in test [1] (setting [4]), 10 to 25 µM; on Human Calpain 2/NS1, < 3 µM; in test [2] it was > 25 µM.

With `CC(C)C[C@H](NC(=O)c1cn(C)nc1-c1ccccc1)C(=O)C(N)=O` [Compound 415, (S)—N-(1-amino-5-methyl-1,2-dioxohexan-3-yl)-1-methyl-3-phenyl-1H-pyrazole-4-carboxamide], the IC50 is < 3 µM on Human Calpain 1/NS1; < 3 µM on Human Calpain 9/NS1; > 25 µM in test [1] (setting [4]); < 3 µM on Human Calpain 2/NS1; > 25 µM in test [2].

Consider `NC(=O)C(=O)C(Cc1c[nH]c2ccccc12)NC(=O)c1nsnc1-c1ccccc1` (stereo not drawn) [Compound 532, N-(4-amino-1-(1H-indol-3-yl)-3,4-dioxobutan-2-yl)-4-phenyl-1,2,5-thiadiazole-3-carboxamide], for which the IC50 at Human Calpain 1/NS1 was < 3 µM; on Human Calpain 9/NS1, < 3 µM; in test [1] (setting [4]), < 10 µM; at Human Calpain 2/NS1, < 3 µM; in test [2], < 10 µM.

As for `Cc1cc(C(=O)NC(Cc2ccccc2)C(=O)C(N)=O)n(-c2ccc(CN3CCOCC3)cc2)n1` (stereo not drawn) [Compound 442, N-(4-amino-3,4-dioxo-1-phenylbutan-2-yl)-3-methyl-1-(4-(morpholinomethyl)phenyl)-1H-pyrazole-5-carboxamide], the IC50 was < 3 µM on Human Calpain 1/NS1; < 3 µM at Human Calpain 9/NS1; 10 to 25 µM in test [1] (setting [4]); < 3 µM on Human Calpain 2/NS1; > 25 µM in test [2].

With `NC(=O)C(=O)[C@H](Cc1ccccc1)NC(=O)c1cn(-c2ccccc2)nc1-c1ccccc1` [Compound 309, (S)—N-(4-amino-3,4-dioxo-1-phenylbutan-2-yl)-1,3-diphenyl-1H-pyrazole-4-carboxamide], the IC50 was < 3 µM on Human Calpain 1/NS1; < 3 µM at Human Calpain 9/NS1; 10 to 25 µM in test [1] (setting [4]); < 3 µM at Human Calpain 2/NS1; < 10 µM in test [2].

Consider `CCc1nc(-c2ccccc2)c(C(=O)N[C@@H](Cc2ccccc2)C(=O)C(N)=O)o1` [Compound 226, (S)—N-(4-amino-3,4-dioxo-1-phenylbutan-2-yl)-2-ethyl-4-phenyloxazole-5-carboxamide], for which the IC50 was < 3 µM at Human Calpain 1/NS1 (Column A); < 3 µM on Human Calpain 9/NS1 (Column C); < 10 µM in test [1] (setting [3]); < 3 µM at Human Calpain 2/NS1 (Column B); < 10 µM in test [2] (Column E).
